Reference: publication PMC6658998, “Pharmacological characterization of the seven human NOX isoforms and their inhibitors” (Redox Biology, 2019)
Like-named read-outs stand apart in the source and are kept apart here.

Key:
DUOX1 = biological target: T1, DUOX1 (Homo sapiens, UniProt Q9NRD9); assay: Amplex Red/HRP H2O2 detection in DUOX1-expressing HEK293 cells; format: cell-based
T1 construct: expressed in transfected cells; host or cells: HEK293, selected with G418 and zeocin

DUOX2 = biological target: T2, DUOX2 (Homo sapiens, UniProt Q9NRD8); assay: Amplex Red/HRP H2O2 detection in DUOX2-expressing HEK293 cells; format: cell-based; details: PMA 0.1 μM and ionomycin 1 μM, read-out: IC50 DUOX2 (HEK) AR
T2 construct: expressed in transfected cells; host or cells: HEK293, selected with G418 and zeocin
T2 sequence (Q9NRD8 26-1548): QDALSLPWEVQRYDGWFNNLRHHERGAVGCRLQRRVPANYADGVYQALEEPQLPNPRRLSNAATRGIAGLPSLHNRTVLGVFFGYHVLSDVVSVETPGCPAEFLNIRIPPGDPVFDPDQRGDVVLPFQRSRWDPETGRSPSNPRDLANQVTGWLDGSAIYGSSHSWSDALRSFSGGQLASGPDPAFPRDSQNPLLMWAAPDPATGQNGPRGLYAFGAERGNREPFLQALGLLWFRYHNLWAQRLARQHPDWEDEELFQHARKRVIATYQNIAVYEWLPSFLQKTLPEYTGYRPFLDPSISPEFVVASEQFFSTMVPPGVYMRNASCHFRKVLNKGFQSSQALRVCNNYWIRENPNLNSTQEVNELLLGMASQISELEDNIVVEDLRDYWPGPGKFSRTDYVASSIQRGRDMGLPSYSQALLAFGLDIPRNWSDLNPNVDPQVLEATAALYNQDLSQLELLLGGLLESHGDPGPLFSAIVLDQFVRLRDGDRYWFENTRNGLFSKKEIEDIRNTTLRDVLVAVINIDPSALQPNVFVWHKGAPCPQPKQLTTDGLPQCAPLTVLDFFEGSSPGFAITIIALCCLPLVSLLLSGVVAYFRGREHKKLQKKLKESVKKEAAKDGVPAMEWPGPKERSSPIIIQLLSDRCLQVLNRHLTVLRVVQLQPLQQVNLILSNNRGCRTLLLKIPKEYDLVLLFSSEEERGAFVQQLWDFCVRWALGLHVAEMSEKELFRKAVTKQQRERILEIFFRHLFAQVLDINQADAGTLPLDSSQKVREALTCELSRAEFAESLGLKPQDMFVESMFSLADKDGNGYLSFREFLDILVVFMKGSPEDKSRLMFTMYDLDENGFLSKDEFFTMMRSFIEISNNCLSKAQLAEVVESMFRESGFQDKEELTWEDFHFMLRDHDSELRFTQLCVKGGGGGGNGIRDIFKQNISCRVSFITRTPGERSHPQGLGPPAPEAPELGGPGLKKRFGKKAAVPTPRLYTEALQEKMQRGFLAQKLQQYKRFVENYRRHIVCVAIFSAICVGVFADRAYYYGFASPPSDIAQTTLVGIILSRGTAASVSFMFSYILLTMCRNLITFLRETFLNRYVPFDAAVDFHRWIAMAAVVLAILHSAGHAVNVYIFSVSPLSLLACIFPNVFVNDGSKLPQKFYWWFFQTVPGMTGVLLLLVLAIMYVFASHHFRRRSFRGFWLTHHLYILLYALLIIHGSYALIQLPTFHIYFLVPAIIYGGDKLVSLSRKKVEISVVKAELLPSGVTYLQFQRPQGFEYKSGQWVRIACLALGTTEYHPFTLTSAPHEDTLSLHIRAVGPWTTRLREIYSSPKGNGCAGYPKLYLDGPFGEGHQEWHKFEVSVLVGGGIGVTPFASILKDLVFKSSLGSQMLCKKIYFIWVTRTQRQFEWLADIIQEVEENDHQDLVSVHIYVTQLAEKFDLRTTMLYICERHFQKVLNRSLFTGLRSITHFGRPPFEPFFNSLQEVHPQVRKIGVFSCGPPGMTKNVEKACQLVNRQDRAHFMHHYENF
T2 sequence (Q1HG44 whole entry partner): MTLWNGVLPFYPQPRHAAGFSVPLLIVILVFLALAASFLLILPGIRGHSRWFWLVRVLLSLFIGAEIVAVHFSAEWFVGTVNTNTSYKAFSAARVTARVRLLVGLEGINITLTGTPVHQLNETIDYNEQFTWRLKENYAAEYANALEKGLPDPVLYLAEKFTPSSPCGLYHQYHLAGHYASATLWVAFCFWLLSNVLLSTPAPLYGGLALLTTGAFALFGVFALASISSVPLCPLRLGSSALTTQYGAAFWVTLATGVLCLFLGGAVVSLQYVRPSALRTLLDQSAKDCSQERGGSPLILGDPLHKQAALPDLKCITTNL

[1] = DPPH free radical scavenging assay (absorbance); details: cell-free, DPPH in methanol, 15 min; read-out: Scavenging effect IC50 Absorbance DPPH
Protocol: This assay allows to detect H2O2 scavengers as well as HRP inhibitors. (iii) Another assay for determining antioxidant activity analyzes serial dilutions of compounds in the presence of free radical DPPH in methanol in transparent 96-well plates (200 μl/well). Absorbance was measured at 540 nm after 15 min incubation in the dark. All scavenging assays were performed with FlexStation 3 Multi-Mode Microplate Reader (Molecular Devices).

[2] = Cell-free CBA assay with 10 μM H2O2 (H2O2 scavenging); details: 10 μM H2O2, 800 μM CBA
in vitro [3] = details: Chinese hamster
Protocol: (§1) The effect of the compounds on cell viability was obtained using the Calcein-AM assay. […] Cells suspensions were prepared in HBSS. Cells were preincubated at 50,000 cells/well with compounds for 10 min at room temperature before addition of 4 μM Calcein-AM. Then the plate was incubated at 37 °C for 1 h in the dark. Intracellular Calcein fluorescence was measured using Spectramax Paradigm (Molecular Devices) at 485 nm excitation and 520 nm emission.

in vitro [4] = details: human
Protocol: as §1

human NOX4 = biological target: T3, human NOX4 (Homo sapiens, UniProt Q9NPH5); assay: Amplex Red/HRP H2O2 detection in tetracycline-induced NOX4 HEK293 T-REx cells
T3 sequence (Q9NPH5 1-578): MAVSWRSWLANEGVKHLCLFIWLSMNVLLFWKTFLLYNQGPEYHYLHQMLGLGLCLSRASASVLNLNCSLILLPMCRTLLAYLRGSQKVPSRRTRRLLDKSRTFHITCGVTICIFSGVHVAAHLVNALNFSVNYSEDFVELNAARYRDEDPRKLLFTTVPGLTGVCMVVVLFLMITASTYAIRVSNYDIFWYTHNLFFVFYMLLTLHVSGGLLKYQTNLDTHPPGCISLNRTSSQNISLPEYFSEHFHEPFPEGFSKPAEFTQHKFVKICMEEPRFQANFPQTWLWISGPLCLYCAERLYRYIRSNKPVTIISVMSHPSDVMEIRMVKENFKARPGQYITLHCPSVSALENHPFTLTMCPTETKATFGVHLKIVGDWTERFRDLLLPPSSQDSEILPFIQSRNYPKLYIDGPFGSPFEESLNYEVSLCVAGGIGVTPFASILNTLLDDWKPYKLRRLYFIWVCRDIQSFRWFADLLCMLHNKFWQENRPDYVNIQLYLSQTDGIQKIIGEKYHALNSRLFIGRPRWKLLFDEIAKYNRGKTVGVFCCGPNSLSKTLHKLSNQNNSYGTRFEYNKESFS
T3 sequence (P13498 1-195 partner): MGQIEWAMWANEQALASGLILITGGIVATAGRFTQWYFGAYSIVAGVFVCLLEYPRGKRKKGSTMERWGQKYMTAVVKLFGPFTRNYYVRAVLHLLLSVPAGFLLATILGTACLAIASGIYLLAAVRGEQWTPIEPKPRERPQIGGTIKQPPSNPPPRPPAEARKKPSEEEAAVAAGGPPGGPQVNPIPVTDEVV

NOX5 = biological target: T4, NOX5 (Homo sapiens, UniProt Q96PH1); assay: WST-1 O2•- detection in NOX5-expressing HEK293 cells; format: cell-based; details: WST-1, PMA 0.1 μM and ionomycin 1 μM; read-out: IC50 NOX5 (HEK) WST-1
T4 construct: expressed in transfected cells
T4 sequence (Q96PH1 19-737 isoform Q96PH1-3 limits assumed): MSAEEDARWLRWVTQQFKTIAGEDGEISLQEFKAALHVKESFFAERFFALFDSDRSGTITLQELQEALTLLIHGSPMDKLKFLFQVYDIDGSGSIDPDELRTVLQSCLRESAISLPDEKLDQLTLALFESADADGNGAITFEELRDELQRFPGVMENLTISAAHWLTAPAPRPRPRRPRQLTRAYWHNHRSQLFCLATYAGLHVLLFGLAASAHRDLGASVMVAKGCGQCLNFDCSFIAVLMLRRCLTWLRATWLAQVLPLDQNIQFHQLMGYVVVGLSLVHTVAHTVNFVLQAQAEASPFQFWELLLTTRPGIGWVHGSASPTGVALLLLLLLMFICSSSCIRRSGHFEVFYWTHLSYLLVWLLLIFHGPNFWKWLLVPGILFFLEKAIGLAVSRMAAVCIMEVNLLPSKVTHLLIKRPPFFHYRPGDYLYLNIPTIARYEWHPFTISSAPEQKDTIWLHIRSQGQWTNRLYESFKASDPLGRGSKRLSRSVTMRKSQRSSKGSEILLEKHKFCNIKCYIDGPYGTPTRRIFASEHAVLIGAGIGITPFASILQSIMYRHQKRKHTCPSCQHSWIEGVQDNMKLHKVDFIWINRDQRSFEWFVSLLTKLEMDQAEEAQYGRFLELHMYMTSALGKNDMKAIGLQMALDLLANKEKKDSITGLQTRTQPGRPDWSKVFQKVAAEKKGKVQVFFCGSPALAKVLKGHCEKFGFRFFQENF

[5] = Amplex red/HRP, PMA 0.1 μM and ionomycin 1 μM, read-out: IC50 DUOX1 (HEK) AR

T1 sequence (Q9NRD9 22-1551): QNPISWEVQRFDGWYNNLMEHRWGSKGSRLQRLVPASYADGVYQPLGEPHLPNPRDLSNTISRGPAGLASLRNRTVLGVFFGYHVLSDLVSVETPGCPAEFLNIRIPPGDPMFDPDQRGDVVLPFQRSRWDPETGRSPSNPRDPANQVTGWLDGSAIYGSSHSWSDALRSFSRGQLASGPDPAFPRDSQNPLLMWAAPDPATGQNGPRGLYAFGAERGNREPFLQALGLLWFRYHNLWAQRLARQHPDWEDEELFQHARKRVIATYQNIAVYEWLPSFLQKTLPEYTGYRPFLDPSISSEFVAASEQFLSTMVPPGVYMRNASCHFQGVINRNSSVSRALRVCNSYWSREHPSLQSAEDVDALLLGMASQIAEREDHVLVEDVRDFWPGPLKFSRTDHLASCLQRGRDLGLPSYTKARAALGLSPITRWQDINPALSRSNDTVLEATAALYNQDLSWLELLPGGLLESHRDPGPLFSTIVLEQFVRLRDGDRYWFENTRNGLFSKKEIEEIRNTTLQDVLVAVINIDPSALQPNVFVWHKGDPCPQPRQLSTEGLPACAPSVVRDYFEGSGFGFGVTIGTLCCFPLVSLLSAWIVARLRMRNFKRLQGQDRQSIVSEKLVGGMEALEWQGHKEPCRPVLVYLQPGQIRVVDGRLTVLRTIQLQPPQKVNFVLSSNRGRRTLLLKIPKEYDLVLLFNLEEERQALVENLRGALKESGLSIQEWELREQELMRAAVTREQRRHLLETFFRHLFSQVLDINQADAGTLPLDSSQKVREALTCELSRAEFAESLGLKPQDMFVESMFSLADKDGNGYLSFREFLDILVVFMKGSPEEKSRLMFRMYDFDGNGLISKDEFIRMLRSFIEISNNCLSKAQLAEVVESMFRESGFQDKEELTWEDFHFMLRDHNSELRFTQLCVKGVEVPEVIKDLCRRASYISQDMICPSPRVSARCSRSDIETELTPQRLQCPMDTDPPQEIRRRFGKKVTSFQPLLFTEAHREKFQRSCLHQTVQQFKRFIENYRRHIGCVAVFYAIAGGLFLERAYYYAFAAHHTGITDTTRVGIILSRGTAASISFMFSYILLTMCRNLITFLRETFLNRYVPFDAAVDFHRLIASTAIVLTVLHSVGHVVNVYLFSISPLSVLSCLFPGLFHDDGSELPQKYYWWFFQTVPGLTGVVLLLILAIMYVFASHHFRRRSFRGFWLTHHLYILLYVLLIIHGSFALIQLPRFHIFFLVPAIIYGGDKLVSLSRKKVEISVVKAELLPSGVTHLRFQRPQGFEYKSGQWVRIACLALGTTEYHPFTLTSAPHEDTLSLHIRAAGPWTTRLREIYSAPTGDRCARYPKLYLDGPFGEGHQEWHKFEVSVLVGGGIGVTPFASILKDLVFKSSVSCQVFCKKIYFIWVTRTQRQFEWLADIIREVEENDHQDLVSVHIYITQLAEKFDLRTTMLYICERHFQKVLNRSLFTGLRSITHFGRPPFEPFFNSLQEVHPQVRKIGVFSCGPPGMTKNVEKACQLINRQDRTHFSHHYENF
T1 sequence (Q1HG43 whole entry partner): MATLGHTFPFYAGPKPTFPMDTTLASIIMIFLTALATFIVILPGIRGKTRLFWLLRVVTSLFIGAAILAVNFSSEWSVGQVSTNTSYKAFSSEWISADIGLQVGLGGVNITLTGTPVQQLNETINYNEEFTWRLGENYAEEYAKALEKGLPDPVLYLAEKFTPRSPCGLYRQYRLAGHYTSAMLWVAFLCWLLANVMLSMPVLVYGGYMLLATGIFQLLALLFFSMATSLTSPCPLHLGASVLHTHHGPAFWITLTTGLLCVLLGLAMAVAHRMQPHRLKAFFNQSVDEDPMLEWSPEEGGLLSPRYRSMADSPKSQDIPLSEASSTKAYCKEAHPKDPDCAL

Compound | IC50 (DUOX1; [5]) [µM] | IC50 (DUOX2) [µM] | IC50 [1] [µM] | Effect on CBA signal (direct scavenging of H2O2) ([2]; serial dilutions) | CC50 at 1 h (in vitro [3]; CHO cells) [µM] | CC50 at 1 h (in vitro [4]; HEK/T-REx cells) [µM] | IC50 (human NOX4) [µM] | IC50 (NOX5) [µM] | Effect on CBA signal (direct scavenging of H2O2) ([2]; at high concentration) | CC50 at 1 h (in vitro [3]) [µM] | CC50 at 1 h (in vitro [4]) [µM] | IC50 (DUOX1) [µM]
O=c1c2ccccc2[se]n1-c1ccccc1 [Ebselen, ebselen] | 4.2 | 4.2 | > 50 | inhibited the CBA signal | 3.3 | 1.8 | 4.1 |  |  |  |  | 
Cc1c2c(=O)n(-c3ccccc3Cl)[nH]c2cc(=O)n1Cc1ccccn1 [GKT136901] | 5.9 | 9.8 | 21.7 | not scavenging H2O2 | > 50 | > 50 | 2.7 | > 50 |  |  |  | 
COc1cc(C(C)=O)ccc1O [Apocynin, apocynin] | > 50 | > 50 | > 50 |  |  |  | > 50 | > 50 | inhibited the CBA signal | > 50 | > 50 | 
COc1cc(C(C)=O)cc(-c2cc(C(C)=O)cc(OC)c2O)c1O [Diapocynin, diapocynin] | 13.6 | 21.7 | > 50 | inactive | > 50 | > 50 | > 50 | > 50 |  |  |  | 
c1ccc2c(c1)[I+]c1ccccc1-2 [DPI, diphenylene iodonium chloride] |  |  | > 50 |  |  |  |  |  |  | > 50 | > 50 | 1.4
